The values that follow are results of earlier work, collected in patent US20160143979A1, “Long Pepper Extract an Effective Anticancer Treatment” (priority 2014, published 2016).

The test system of this data set is cancer cells. As to conditions: previous study.

For `COc1cc(/C=C/C(=O)N2CCC=CC2=O)cc(OC)c1OC` [piperlongumine], the “concentration required for significant cell death induction” value is 10.
